According to patent publication US8017612B2, “Piperazine compound and use thereof as a HCV polymerase inhibitor” (priority 2006, dated 2011):

Legend:
[1] = target: T1, HCV polymerase (NS5B) type 1b (Hepatitis C virus genotype 1b, UniProt P26663); assay: Assay of enzyme (HCV polymerase) inhibitory activity, type 1b enzyme; assay type: biochemical, HCV BK strain (type 1b); details: HCV polymerase inhibitory activity IC50, 1b, type 1b enzyme
T1 construct: a region encoding NS5B (J Virol 1991 March, 65(3), 1105-13, 544 amino acids after deletion of 47 amino acids on the C-terminal); 6xHis (C); made in house; host or cells: Escherichia coli
Outline: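 Rxn: NS5B 1b (BK, ΔC47, His6) 0.5 μg/ml; substrate RNA 5 μg/ml; ATP/GTP/CTP 50 μM, UTP 2 μM + [5,6-3H]UTP; 20 mM Tris pH 7.5, 5 mM MgCl2, 50 mM NaCl, 1 mM EDTA/DTT. 25 °C, 60 min. Stop with TCA/pyrophosphate, filter, scintillation count; IC50 vs. untreated.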

[2] = target: T2, HCV polymerase (NS5B) type 1a (Hepatitis C virus genotype 1a, UniProt P26664); assay: Assay of enzyme (HCV polymerase) inhibitory activity, type 1a enzyme; assay type: biochemical, HCV type 1a (cloned from the blood of patients); details: HCV polymerase inhibitory activity IC50, 1a, type 1a enzyme
T2 construct: made in house; host or cells: Escherichia coli (by the 'similar method' of the 1b enzyme)
Outline: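 NS5B Δ47 C-term His6 (type 1a, 1.5 μg/ml); substrate RNA 5 μg/ml; ATP/GTP/CTP 50 μM, UTP 2 μM + [5,6-3H]UTP; Tris pH 7.5, MgCl2 5 mM; 25° C, 60 min. TCA/pyrophosphate stop, GF/B filter, scintillation. IC50 vs no-compound control.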

## O=C(NCc1ccc(OC(F)(F)F)cc1)[C@H]1CN(c2nn3ccc(=O)nc3s2)CCN1S(=O)(=O)c1ccc(C(F)(F)F)cc1 [Example 1059, (R)-4-(7-oxo-7H-[1,3,4]thiadiazolo[3,2-a]pyrimidin-2-yl)-1-(4-trifluoromethyl-benzenesulfonyl)-piperazine-2-carboxylic acid 4-trifluoromethoxy-benzylamide]
[1]
  IC50: < 0.1 µM
[2]
  IC50: < 0.1 µM

## CC(O)c1ncc2sc(N3CCN(S(=O)(=O)c4ccc(OC(F)(F)F)cc4)[C@@H](C(=O)NCc4ccc(OC(F)(F)F)cc4)C3)nc2n1 (stereo partly drawn) [Example 1060, (R)-4-[5-(1-hydroxy-ethyl)-thiazolo[4,5-d]pyrimidin-2-yl]-1-(4-trifluoromethoxy-benzenesulfonyl)-piperazine-2-carboxylic acid 4-trifluoromethoxy-benzylamide]
[1]
  IC50: < 0.1 µM
[2]
  IC50: < 0.1 µM

## O=C(NCc1ccc(OC(F)F)c(F)c1)[C@H]1CN(c2nc3nc(C(F)(F)F)ncc3s2)CCN1S(=O)(=O)c1ccc(OC(F)(F)F)cc1 [Example 1061, (R)-1-(4-trifluoromethoxy-benzenesulfonyl)-4-(5-trifluoromethyl-thiazolo[4,5-d]pyrimidin-2-yl)-piperazine-2-carboxylic acid 4-difluoromethoxy-3-fluoro-benzylamide]
[1]
  IC50: < 0.1 µM
[2]
  IC50: < 0.1 µM

## O=C(NCc1ccc(OC(F)(F)F)cc1)[C@H]1CN(c2nc3ccc(=O)[nH]c3s2)CCN1S(=O)(=O)c1ccc(OC(F)(F)F)cc1 [Example 1062, (R)-4-(5-oxo-4,5-dihydro-thiazolo[5,4-b]pyridin-2-yl)-1-(4-trifluoromethoxy-benzenesulfonyl)-piperazine-2-carboxylic acid 4-trifluoromethoxy-benzylamide]
[1]
  IC50: < 0.1 µM
[2]
  IC50: < 0.1 µM

## O=C(NCc1ccc(OC(F)F)cc1)[C@H]1CN(c2nn3ccc(=O)nc3s2)CCN1S(=O)(=O)c1ccc(OC(F)F)cc1 [Example 1063, (R)-1-(4-difluoromethoxy-benzenesulfonyl)-4-(7-oxo-7H-[1,3,4]thiadiazolo[3,2-a]pyrimidin-2-yl)-piperazine-2-carboxylic acid 4-difluoromethoxy-benzylamide]
[1]
  IC50: < 0.1 µM
[2]
  IC50: < 0.1 µM

## CCCc1ccc(CNC(=O)[C@H]2CN(c3nc4c(C(=O)OCC)cncc4s3)CCN2S(=O)(=O)c2ccc(CC)cc2)cc1 [Example 1064, 2-[(R)-4-(4-ethyl-benzenesulfonyl)-3-(4-propyl-benzylcarbamoyl)-piperazin-1-yl]-thiazolo[5,4-c]pyridine-7-carboxylic acid ethyl ester]
[1]
  IC50: < 0.1 µM
[2]
  IC50: < 0.1 µM

## CCCc1ccc(CNC(=O)[C@H]2CN(c3nc4c(C(=O)O)cncc4s3)CCN2S(=O)(=O)c2ccc(CC)cc2)cc1 [Example 1065, 2-[(R)-4-(4-ethyl-benzenesulfonyl)-3-(4-propyl-benzylcarbamoyl)-piperazin-1-yl]-thiazolo[5,4-c]pyridine-7-carboxylic acid]
[1]
  IC50: < 0.1 µM
[2]
  IC50: < 0.1 µM

## O=C(NCc1ccc(OC(F)F)cc1)[C@H]1CN(c2nn3c(C(F)(F)F)cc(=O)nc3s2)CCN1S(=O)(=O)c1ccc(OC(F)(F)F)cc1 [Example 1066, (R)-4-(7-oxo-5-trifluoromethyl-7H-[1,3,4]thiadiazolo[3,2-a]pyrimidin-2-yl)-1-(4-trifluoromethoxy-benzenesulfonyl)-piperazine-2-carboxylic acid 4-difluoromethoxy-benzylamide]
[1]
  IC50: < 0.1 µM
[2]
  IC50: < 0.1 µM

## O=C(NCc1ccc(OC(F)(F)F)cc1)[C@H]1CN(c2nn3c(C(F)(F)F)cc(=O)nc3s2)CCN1S(=O)(=O)c1ccc(C(F)(F)F)cc1 [Example 1067, (R)-4-(7-oxo-5-trifluoromethyl-7H-[1,3,4]thiadiazolo[3,2-a]pyrimidin-2-yl)-1-(4-trifluoromethyl-benzenesulfonyl)-piperazine-2-carboxylic acid 4-trifluoromethoxy-benzylamide]
[1]
  IC50: < 0.1 µM
[2]
  IC50: < 0.1 µM

## O=C(NCc1ccc(OC(F)F)cc1)[C@H]1CN(c2nn3c(C(F)(F)F)cc(=O)nc3s2)CCN1S(=O)(=O)c1ccc(C(F)(F)F)cc1 [Example 1068, (R)-4-(7-oxo-5-trifluoromethyl-7H-[1,3,4]thiadiazolo[3,2-a]pyrimidin-2-yl)-1-(4-trifluoromethyl-benzenesulfonyl)-piperazine-2-carboxylic acid 4-difluoromethoxy-benzylamide]
[1]
  IC50: < 0.1 µM
[2]
  IC50: < 0.1 µM

## O=C(NCc1ccc(OC(F)(F)F)cc1)[C@H]1CN(c2nc3nc(C4CCC4)ncc3s2)CCN1S(=O)(=O)c1ccc(OC(F)(F)F)cc1 [Example 1069, (R)-4-(5-cyclobutyl-thiazolo[4,5-d]pyrimidin-2-yl)-1-(4-trifluoromethoxy-benzenesulfonyl)-piperazine-2-carboxylic acid 4-trifluoromethoxy-benzylamide]
[1]
  IC50: < 0.1 µM
[2]
  IC50: < 0.1 µM

## COCCc1ncc2sc(N3CCN(S(=O)(=O)c4ccc(OC(F)(F)F)cc4)[C@@H](C(=O)NCc4ccc(OC(F)(F)F)cc4)C3)nc2n1 [Example 1070, (R)-4-[5-(2-methoxy-ethyl)-thiazolo[4,5-d]pyrimidin-2-yl]-1-(4-trifluoromethoxy-benzenesulfonyl)-piperazine-2-carboxylic acid 4-trifluoromethoxy-benzylamide]
[1]
  IC50: < 0.1 µM
[2]
  IC50: < 0.1 µM

## COCCn1ncc2sc(N3CCN(S(=O)(=O)c4ccc(OC(F)(F)F)cc4)[C@@H](C(=O)NCc4ccc(OC(F)(F)F)cc4)C3)nc2c1=O [Example 1071, (R)-4-[5-(2-methoxy-ethyl)-4-oxo-4,5-dihydro-thiazolo[4,5-d]pyridazin-2-yl]-1-(4-trifluoromethoxy-benzenesulfonyl)-piperazine-2-carboxylic acid 4-trifluoromethoxy-benzylamide]
[1]
  IC50: < 0.1 µM
[2]
  IC50: < 0.1 µM

## O=C(NCc1ccc(OC(F)(F)F)cc1)[C@H]1CN(c2nc3nc(C4CCC4)ncc3s2)CCN1S(=O)(=O)c1ccc(C(F)(F)F)cc1 [Example 1072, (R)-4-(5-cyclobutyl-thiazolo[4,5-d]pyrimidin-2-yl)-1-(4-trifluoromethyl-benzenesulfonyl)-piperazine-2-carboxylic acid 4-trifluoromethoxy-benzylamide]
[1]
  IC50: < 0.1 µM
[2]
  IC50: < 0.1 µM

## O=C(NCc1ccc(OC(F)F)c(F)c1)[C@H]1CN(c2nc3nc(C4CC4)ncc3s2)CCN1S(=O)(=O)c1ccc(OC(F)(F)F)cc1 [Example 1073, (R)-4-(5-cyclopropyl-thiazolo[4,5-d]pyrimidin-2-yl)-1-(4-trifluoromethoxy-benzenesulfonyl)-piperazine-2-carboxylic acid 4-difluoromethoxy-3-fluoro-benzylamide]
[1]
  IC50: < 0.1 µM
[2]
  IC50: < 0.1 µM

## O=C(NCc1ccc(OC(F)F)c(F)c1)[C@H]1CN(c2nc3nc(C4CC4)ncc3s2)CCN1S(=O)(=O)c1ccc(C(F)(F)F)cc1 [Example 1074, (R)-4-(5-cyclopropyl-thiazolo[4,5-d]pyrimidin-2-yl)-1-(4-trifluoromethyl-benzenesulfonyl)-piperazine-2-carboxylic acid 4-difluoromethoxy-3-fluoro-benzylamide]
[1]
  IC50: < 0.1 µM
[2]
  IC50: < 0.1 µM

## CC(C)(O)c1ncc2sc(N3CCN(S(=O)(=O)c4ccc(C(F)(F)F)cc4)[C@@H](C(=O)NCc4ccc(OC(F)(F)F)cc4)C3)nc2n1 [Example 1075, (R)-4-[5-(1-hydroxy-1-methyl-ethyl)-thiazolo[4,5-d]pyrimidin-2-yl]-1-(4-trifluoromethyl-benzenesulfonyl)-piperazine-2-carboxylic acid 4-trifluoromethoxy-benzylamide]
[1]
  IC50: < 0.1 µM
[2]
  IC50: < 0.1 µM

## COCC1(c2ncc3sc(N4CCN(S(=O)(=O)c5ccc(OC(F)(F)F)cc5)[C@@H](C(=O)NCc5ccc(OC(F)(F)F)cc5)C4)nc3n2)CC1 [Example 1076, (R)-4-[5-(1-methoxymethyl-cyclopropyl)-thiazolo[4,5-d]pyrimidin-2-yl]-1-(4-trifluoromethoxy-benzenesulfonyl)-piperazine-2-carboxylic acid 4-trifluoromethoxy-benzylamide]
[1]
  IC50: < 0.1 µM
[2]
  IC50: < 0.1 µM

## O=C(NCc1ccc(OC(F)(F)F)cc1)[C@H]1CN(c2nc3nc(C4(CO)CC4)ncc3s2)CCN1S(=O)(=O)c1ccc(OC(F)(F)F)cc1 [Example 1077, (R)-4-[5-(1-hydroxymethyl-cyclopropyl)-thiazolo[4,5-d]pyrimidin-2-yl]-1-(4-trifluoromethoxy-benzenesulfonyl)-piperazine-2-carboxylic acid 4-trifluoromethoxy-benzylamide]
[1]
  IC50: < 0.1 µM
[2]
  IC50: < 0.1 µM

## O=C(NCc1ccc(OC(F)(F)F)cc1)[C@H]1CN(c2nc3c(=O)n(CCO)ncc3s2)CCN1S(=O)(=O)c1ccc(OC(F)(F)F)cc1 [Example 1078, (R)-4-[5-(2-hydroxy-ethyl)-4-oxo-4,5-dihydro-thiazolo[4,5-d]pyridazin-2-yl]-1-(4-trifluoromethoxy-benzenesulfonyl)-piperazine-2-carboxylic acid 4-trifluoromethoxy-benzylamide]
[1]
  IC50: < 0.1 µM
[2]
  IC50: < 0.1 µM
